Test results reported in US20250367164A1, “THERAPEUTIC COMPOSITIONS FOR SKIN DISORDERS AND WOUND REPAIR” (UNIVERSITY OF MIAMI, priority 2022, published 2025).

Legend:
[1] = test system: VEGF; experiment: VEGF ELISA on snap frozen mouse wounds; format: in vivo, mice; details: same mouse wounds, FIG. 14
Experimental: Amount of VEGF in snap frozen mouse wounds was analyzed using VEGF ELISA as per manufacturer's instructions. Up to 8 wounds were utilized per condition in duplicates and amount of VEGF quantified using internal standards provided by the kit.
ELISA was used to measure levels of VEGF from the same wounds in order to validate that the upregulation at the mRNA level coincides with increased VEGF protein level.

[2] = test system: 5-mm round excisional dorsal wounds of db/db mice; experiment: Splinted excisional wound healing in db/db mice treated with hydrogel scaffolds; format: in vivo; details: FIG. 10
Experimental: All animal care and use procedures were approved by the University of Miami Institutional Animal Care and Use Committee (IACUC #19-097). Under anesthesia, 12×7-weeks of age female db/db mice had their dorsal skin hair clipped, depilated and their fasting blood glucose level measured for 3 consecutive days, to validate hyperglycemia (>300 mg/dL was deemed as hyperglycemic). Subsequently, mice's dorsal skin was cleaned with antiseptic solution and four 5-mm round excisional wounds were made, two on each side of the dorsal midline (n=8 wounds per treatment). Dorsal wounds were treated with cylindrical hydrogel scaffolds of 8 mm×2 mm for either 7 or 16 days. Same hydrogel scaffold fabrication procedure was employed (as previously described) and with the same treatment and control formulations as the ex vivo human skin wound models. Scaffolds were fixed on top of the wounds with 14-mm square splints containing a 10 mm circular central opening. Cyanoacrylate glue was used to secure the splints just long enough for 4 non-continuous sutures to adhere the […] to the wound and prevent wound contraction. […] Diabetic mice wounds' closure rate was assessed by histologically analyzing re-epithelialization and epidermal thickness through H&E staining with an Olympus VS120 microscope (Olympus, Tokyo, JPN) and Image J software (NIH, MD, USA). […]

[3] = test system: MRSA USA300; experiment: In vitro MRSA internalization in human keratinocytes; format: cell-based, MRSA USA300 in primary human keratinocytes
Experimental: For all internalization assays, MRSA USA300 strain was used. In vitro pathogen internalization: Primary human keratinocytes were seeded at 5×10^4 in triplicates and allowed to adhere overnight. The following day, they were inoculated with MRSA USA300 conjugated to a pH sensitive dye (pHrodo iFL STP ester, Life Technologies) at 1×10^6 CFU/ml for 1 hr in presence or absence of 1 mM MβCD, prior to washing with PBS. They were then either subject to live cell imaging or washed with lysostaphin for 1 hr (in order to kill any extracellular bacteria), lysed in hypotonic solution and seeded onto blood agar plates in serial dilutions in order to determine relative CFU counts. Ex vivo human skin: Human skin specimens from reduction surgery were obtained and wounded. Briefly, using a biopsy punch 4-mm acute wounds were made in the skin specimens (n=4 per treatment), and either pre-treated in presence or absence of 2 mM MβCD, followed by inoculation with 10 ul of MRSA 10^8 CFU/ml for 24 hrs. Skin was then washed with PBS, incubated with lysostaphin for Ihr in order to kill any extracellular bacteria, lysed with hypotonic solution and subsequent lysate seeded onto blood agar plates in serial dilutions. […]

Which “levels of VEGF” value [1] does the source give for hydroxypropyl-β-cyclodextrin [HβCD] here?
Its value is “increased levels of VEGF”.

How did the “wound closure at the conclusion of the experiment” value [2] turn out when platelet derived growth factor [PDGF] was run?
The value was “not fully closed”.

What does the source list for methyl-β-cyclodextrin [MβCD]?
CFU counts of internalized bacteria ([3]; Cav1 overexpressing and Cav1 knockout human keratinocytes, cell lysate on blood agar plates): lowered the CFU counts; intracellular MRSA ([3]; treatment administered after MRSA infection, keratinocytes): expelled a majority of intracellular MRSA
